Literature values, collected in patent US20130089611A1, “RASAGILINE CITRAMIDE” (TEVA PHARMACEUTICAL INDUSTRIES, LTD., priority 2011, published 2013).

Settings: in vivo

absolute bioavailability: about 36%
SMILES: C#CCN[C@@H]1CCc2ccccc21 [rasagiline, R(+)-N-propargyl-1-aminoindan]
